Source: patent publication US10654884B2 (Vitae Pharmaceuticals, Inc., priority 2014, dated 2020)
pIC50: −log10 of the molar value. Like-named read-outs stand apart in the source and are kept apart here.

Key:
[1] = target: T1, CD73 on U138 neuroglioma cells (Homo sapiens, UniProt P21589); test: Inhibition of Ecto-5′-Nucleotidase Activity in U138 Neuroglioma Cells (Assay 2); type: cell-based
T1 construct: U138 neuroglioma cells, which express CD73 on their surface; endogenous in cells; host or cells: U138 neuroglioma cells (ATCC)
T1 sequence (P21589 27-549): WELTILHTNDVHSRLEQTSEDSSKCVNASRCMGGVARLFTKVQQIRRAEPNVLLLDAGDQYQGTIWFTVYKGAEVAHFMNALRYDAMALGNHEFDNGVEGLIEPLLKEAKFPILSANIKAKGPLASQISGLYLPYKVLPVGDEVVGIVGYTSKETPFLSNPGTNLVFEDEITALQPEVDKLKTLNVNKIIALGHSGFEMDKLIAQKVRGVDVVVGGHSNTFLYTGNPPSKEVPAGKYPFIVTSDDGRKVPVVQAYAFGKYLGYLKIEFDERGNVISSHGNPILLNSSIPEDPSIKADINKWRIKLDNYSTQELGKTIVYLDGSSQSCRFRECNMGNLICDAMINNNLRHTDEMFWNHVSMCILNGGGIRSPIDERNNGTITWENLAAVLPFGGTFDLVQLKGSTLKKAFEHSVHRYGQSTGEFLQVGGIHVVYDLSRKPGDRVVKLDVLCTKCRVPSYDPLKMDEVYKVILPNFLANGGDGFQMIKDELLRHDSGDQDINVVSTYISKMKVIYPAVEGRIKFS
Method: Inhibition of Ecto-5′-Nucleotidase Activity in U138 Neuroglioma Cells (Assay 2)
U138 cells were obtained from the American Type Culture Collection (ATCC) (Manassas, Va.), and cultured in complete growth media (DMEM, 10% FBS, 1 mM L-glutamine, 100 U penicillin-streptomycin) at 37° C., 5% CO2. The day before the experiment, cells were seeded at 2,500 cells/well in 100 μL of complete media into 96-well plates. Cells were washed twice with 200 μL of assay buffer (20 mM HEPES, pH 7.4, 137 mM NaCl, 5.4 mM KCl, 1.3 mM CaCl2, 4.2 mM NaHCO3, 1 mg/mL glucose) to remove residual inorganic phosphate. After washing, assays contained serial dilutions of test compounds and 50 μM of cytidine-5′-monophosphate (CMP) in a total volume of 200 μL of assay buffer, with a final DMSO concentration ≤0.1%. After 2 hr at 37° C., 5% CO2, 100 μL of supernatant was removed from the cells and the concentration of inorganic phosphate was determined using malachite green reagent. IC50 values for test compounds were determined from nonlinear regression fits of the data using XLfit (IDBS).

[2] = target: T2, human CD73 (Homo sapiens, UniProt P21589); test: Inhibition of 5′-Nucleotidase Activity of CD73 (Assay 1); type: biochemical; details: human CD73 4 ng/ml, 50 μM CMP, 20 min at RT, malachite green readout; read-out: Assay 1: IC50, inhibition of 5′-nucleotidase activity of CD73
T2 construct: purchased R&D Systems 5795-EN-010
T2 sequence (P21589 27-549): T1 sequence (P21589 27-549)
Method: Inhibition of 5′-Nucleotidase Activity of CD73 (Assay 1)
Compounds of the present invention were tested for the ability to inhibit CD73 enzyme activity. Tested compounds were dissolved in DMSO (50× final concentration), and 3.2 μL of the solutions added to 96-well polystyrene plates. To these wells were added, 100 μL of human CD73 (R&D Systems Cat. No. 5795-EN-010) and 57 μL of cytidine-5′-monophosphate (CMP) solutions in assay buffer (25 mM Tris-HCl, pH 7.4, 0.005% Brij-35) were added to achieve final concentrations in the assay of 4 ng/ml CD73 and 50 μM of CMP. The assay mixture was incubated for 20 min at RT. The reaction was stopped by addition of 40 μL of malachite green reagent which was prepared by mixing together 10 ml 2M H2SO4, 2.5 ml of 15% ammonium molybdate and 0.2 ml of 11% Tween-20. The mixture was agitated vigorously for 10 min at RT, and absorbance at 620 nm was determined on a microplate spectrophotometer. […] The IC50 values were derived using a non-linear 4 parameter logistic model (XLFit software, IDBS) and correspond to the inflection points on dose-response curves.

[3] = 50 μM CMP, 2 hr at 37° C., malachite green readout, read-out: Assay 2: IC50, inhibition of ecto-5′-nucleotidase activity in U138 neuroglioma cells

| Compound | pIC50 [1, 3] | pIC50 [2] | pIC50 ([1]; IC50 value for APCP (standard), standard in each experiment, typical range) |
| --- | --- | --- | --- |
| CC(C)(C)NC(=O)[C@H](OC[C@H]1O[C@@H](n2cnc3c(N)nc(Cl)nc32)[C@H](O)[C@@H]1O)P(=O)(O)O (single isomer, unassigned) [Example 19] | > 7.00 | > 7.00 |  |
| N#Cc1ccc(CC(OC[C@H]2O[C@@H](n3cnc4c(N)nc(Cl)nc43)[C@H](O)[C@@H]2O)(C(=O)O)C(=O)O)cc1 [Example 48, 2-(((2R,3S,4R,5R)-5-(6-amino-2-chloro-9H-purin-9-yl)-3,4-dihydroxytetrahydrofuran-2-yl)methoxy)-2-(4-cyanobenzyl)malonic acid] | > 7.00 | > 7.00 |  |
| CC(C)(C)NC(=O)[C@@H](OC[C@H]1O[C@@H](n2cnc3c(N)nc(Cl)nc32)[C@H](O)[C@@H]1O)P(=O)(O)O (single isomer, unassigned) [Example 19a] | 6.00 to 7.00 | 6.00 to 7.00 |  |
| CCOC(=O)[C@@H](OC[C@H]1O[C@@H](n2cnc3c(OCC)nc(Cl)nc32)[C@H](O)[C@@H]1O)P(=O)(O)O (single isomer, unassigned) [Example 27a] | 6.00 to 7.00 | 6.00 to 7.00 |  |
| Nc1nc(Cl)nc2c1ncn2[C@@H]1O[C@H](COC(COCc2ccccc2)(C(=O)O)C(=O)O)[C@@H](O)[C@H]1O [Example 6, 2-(((2R,3S,4R,5R)-5-(6-amino-2-chloro-9H-purin-9-yl)-3,4-dihydroxytetrahydrofuran-2-yl)methoxy)-2-((benzyloxy)methyl)malonic acid] | > 7.00 | > 7.00 |  |
| O=C(Nc1nc(I)nc2c1ncn2[C@@H]1O[C@H](COC(C(=O)O)P(=O)(O)O)[C@@H](O)[C@H]1O)c1ccccc1 (stereo partly drawn) [Example 58, 2-(((2R,3S,4R,5R)-5-(6-benzamido-2-iodo-9H-purin-9-yl)-3,4-dihydroxytetrahydrofuran-2-yl)methoxy)-2-phosphonoacetic acid] | 6.00 to 7.00 | > 7.00 |  |
| CCOC(=O)C(OC[C@H]1C[C@@H](n2nnc3c(NC[C@@H]4CCOC4)nc(Cl)nc32)[C@H](O)[C@@H]1O)P(=O)(O)O (stereo partly drawn) [Example 88, (1-(((1R,2R,3S,4R)-4-(5-chloro-7-((((S)-tetrahydrofuran-3-yl)methyl)amino)-3H-[1,2,3]triazolo[4,5-d]pyrimidin-3-yl)-2,3-dihydroxycyclopentyl)methoxy)-2-ethoxy-2-oxoethyl)phosphonic Acid] | > 7.00 | > 7.00 |  |
| CCOC(=O)C(OC[C@H]1C[C@@H](n2nnc3c(N)nc(Cl)nc32)[C@H](O)[C@@H]1O)P(=O)(O)O (single isomer, unassigned) [Example 77] | 6.00 to 7.00 | > 7.00 |  |
| CCOC(=O)C(OC[C@H]1C[C@@H](n2nnc3c(N[C@@H]4CCOC4)nc(Cl)nc32)[C@H](O)[C@@H]1O)P(=O)(O)O (stereo partly drawn) [Example 90, (1-(((1R,2R,3S,4R)-4-(5-chloro-7-(((R)-tetrahydrofuran-3-yl)amino)-3H-[1,2,3]triazolo[4,5-d]pyrimidin-3-yl)-2,3-dihydroxycyclopentyl)methoxy)-2-ethoxy-2-oxoethyl)phosphonic Acid] | > 7.00 | > 7.00 |  |
| CC(C)CNC(=O)[C@H](OC[C@H]1O[C@@H](n2cnc3c(N)nc(Cl)nc32)[C@H](O)[C@@H]1O)P(=O)(O)O (single isomer, unassigned) [Example 17] | > 7.00 | > 7.00 |  |
| CCOC(=O)[C@H](OC[C@H]1C[C@@H](n2cnc3cccc(C#N)c3c2=O)[C@H](O)[C@@H]1O)P(=O)(O)O [Example 73, ((R)-1-(((1R,2R,3S,4R)-4-(5-cyano-4-oxoquinazolin-3(4H)-yl)-2,3-dihydroxycyclopentyl)methoxy)-2-ethoxy-2-oxoethyl)phosphonic Acid] | 6.00 to 7.00 | > 7.00 |  |
| CCOC(=O)C(OC[C@H]1C[C@@H](n2cnc3c(N)nc(Cl)nc32)[C@H](O)[C@@H]1O)P(=O)(O)O (single isomer, unassigned) [Example 76a] | 6.00 to 7.00 | 6.00 to 7.00 |  |
| CC(C)CS(=O)(=O)[C@H](OC[C@H]1O[C@@H](n2cnc3c(N)nc(Cl)nc32)[C@H](O)[C@@H]1O)P(=O)(O)O (single isomer, unassigned) [Example 13] | 6.00 to 7.00 | > 7.00 |  |
| CC(=O)NNC(=O)C(OC[C@H]1O[C@@H](n2cnc3c(N)nc(Cl)nc32)[C@H](O)[C@@H]1O)P(=O)(O)O (stereo partly drawn) [Example 20, (2-(2-acetylhydrazinyl)-1-(((2R,3S,4R,5R)-5-(6-amino-2-chloro-9H-purin-9-yl)-3,4-dihydroxytetrahydrofuran-2-yl)methoxy)-2-oxoethyl)phosphonic Acid] | 6.00 to 7.00 | > 7.00 |  |
| Nc1nc(Cl)nc2c1ncn2[C@@H]1O[C@H](COC(Cc2cc(F)cc(F)c2)(C(=O)O)C(=O)O)[C@@H](O)[C@H]1O [Example 96, 2-(((2R,3S,4R,5R)-5-(6-amino-2-chloro-9H-purin-9-yl)-3,4-dihydroxytetrahydrofuran-2-yl)methoxy)-2-(3,5-difluorobenzyl)malonic acid] | > 7.00 | > 7.00 |  |
| O=C(O)C(Cc1ccc(F)cc1)(OC[C@H]1O[C@@H](n2cnc3c(NC4CCCC4)nc(Cl)nc32)[C@H](O)[C@@H]1O)C(=O)O [Example 97, 2-(((2R,3S,4R,5R)-5-(2-chloro-6-(cyclopentylamino)-9H-purin-9-yl)-3,4-dihydroxytetrahydrofuran-2-yl)methoxy)-2-(4-fluorobenzyl)malonic acid] | 6.00 to 7.00 | 6.00 to 7.00 |  |
| CCOC(=O)[C@H](OC[C@H]1O[C@@H](n2cnc3c(N)nc(C#N)nc32)[C@H](O)[C@@H]1O)P(=O)(O)O (single isomer, unassigned) [Example 45] | > 7.00 | > 7.00 |  |
| CC(C)(C)OC(=O)C(OC[C@H]1C[C@@H](n2cnc3c(N)nc(Cl)nc32)[C@H](O)[C@@H]1O)P(=O)(O)O (single isomer, unassigned) [Example 78] | 6.00 to 7.00 | > 7.00 |  |
| CCS(=O)(=O)C(OC[C@H]1O[C@@H](n2cnc3c(N)nc(Cl)nc32)[C@H](O)[C@@H]1O)P(=O)(O)O (single isomer, unassigned) [Example 11] | 6.00 to 7.00 | > 7.00 |  |
| CCOC(=O)[C@@H](OC[C@H]1O[C@@H](n2cnc3c(N)nc(Cl)nc32)[C@H](O)[C@@H]1O)P(=O)(O)O (single isomer, unassigned) [1, isomer 2] | 6.00 to 7.00 | 6.00 to 7.00 |  |
| CCOC(=O)[C@H](OC[C@H]1O[C@@H](n2cnc3c(NC(=O)c4ccccc4)nc(Cl)nc32)[C@H](O)[C@@H]1O)P(=O)(O)O (single isomer, unassigned) [Example 36] | 6.00 to 7.00 | > 7.00 |  |
| Nc1ncnc2c1ncn2[C@@H]1O[C@H](COP(=O)(O)CP(=O)(O)O)[C@@H](O)[C@H]1O [APCP, adenosine 5′-(α,β-methylene)diphosphate, reference compound] |  |  | 7.60 to 7.92 |
| Nc1nc(Cl)nc2c1ncn2[C@@H]1O[C@H](COC(C(=O)O)P(=O)(O)O)[C@@H](O)[C@H]1O (single isomer, unassigned) [Example 61a] |  | > 7.00 |  |
| Nc1ncnc2c1ncn2[C@@H]1O[C@H](CO[C@@H](CO)P(=O)(O)O)[C@@H](O)[C@H]1O (single isomer, unassigned) [Example 57] |  | < 6.00 |  |
